Marks after values point to notes of the source that are not given here.
Tests used:
[1] = test system: endometrial stromal cells; test: Apoptosis by Annexin V-FITC/PI flow cytometry; type: cell-based, human; details: regardless of dose, 24 h
Method: Endometrial tissues were surgically isolated from patients with chocolate cyst of ovary, washed 2 to 3 times with PBS supplemented with antibiotics in ultra-clean cabinet, and cut into tiny pieces (about 1 mm^3 in size) with aseptic scissors. The tissues were digested with 1 mg/ml collagenase type I for 30 to 90 min at 37° C., and continually digested with Dnase I (final concentration of 15 U/ml, 2% Dnase I) for another 30 min. The digested tissues were filtered thorough 60-mesh stainless steel filter cell strainer to remove the undigested cell tissues, and were further filtered with 200- or 400-mesh strainer. The filtered solution was centrifuged at 1000 rpm for 5 min. After removing the supernatants, the cells were washed once with culture medium compounded by DMEM/F12 (1:1 v/v) and 10% fetal bovine serum, re-suspended in the culture medium, and seeded in 6-well tissue culture plate or T25 tissue culture flasks with an appropriate density. After 24 hours incubation, the culture medium was changed to remove the non-adherent blood cells, endothelial cells, macrophages and other miscellaneous cells. […] Vimentin which expresses specifically in stromal cells was detected by immuno-fluorescence to measure the cell purity. […] Cell cycle was determined with flow cytometry. […] Cell apotosis was determined by flow cytometry.

[2] = test system: endometrial stromal cells; test: Transwell/matrigel invasion assay; type: cell-based, human; details: 48 h
Method: 500 μL culture medium containing 10% FBS was added into each wells in a 24-well plate. Transwell chambers were treated with 0.3 mg/ml FN diluted by serum free 1640 culture medium (BD company). The cells were seeded (5×10^4 cells/chamber) in the transwell up-chamber, in which 100 μL media were kept finally. The cells were cultured in an incubator at 37° C. in an air atmosphere containing 5% CO2 for the specified time. The chambers were taken out, stained with 0.1% crystal violet, and were photographed. Crystal violet on the membrane was dissolved with 300 μL of 33% Glacial acetic acid. The optical absorption was measured at wavelength 573 nm. On the ice, 100 μL matrigel was taken in with pre-chilled micropipette, transferred into 300 ul pre-chilled serum free medium. The mixture solution was thoroughly mixed to achieve uniform. 25 ul of the previous diluted matrigel was put into transwell up-chamber, covering the whole carbon ester membrane. The transwell was incubated at 37° C., 30 min for Matrigel gelling. The rest treatment was the same as that in Transwell assay.

[3] = test system: infiltration of endometrial stroma and glands into myometrium; test: Adenomyosis mouse model created with tamoxifen, pathological section; type: in vivo, mice
Method: Disodium salt of PQQ was used in the present experiment (PQQ-Na2, donated by MITSUBISHI gas chemical (MGC), Japan). The salt was dissolved with water and the concentration of its mother liquid is 1 mg/mL.
In the present Example, the mouse model of adenomyosis was created with tamoxifen. This method is easy to operate, the rate of molding can reach 100%, and the difference between the model mouses caused by the operation is small. At 2˜5 days after birth (the birth day was the first day), the mice were fed with 5 ul/(g·BW) peanut oil/lecithin/condensed milk mixture (volume ratio 2:0.2:3) supplemented with 0.2 mg/ml tamoxifen (produced by shanghai Fudan Fuhua Pharmaceutical Co, Ltd.) by drip feeding. In the negative control group, the mice were fed with peanut oil/lecithin/condensed milk mixture (volume ratio 2:0.2:3), with no tamoxifen added. All the mice were exposed to light for 12 h/day, and were reared by maternal lactation during 1-21 days of age. After 22 days of birth, the mice were separated with mother mice, and the female mice were reserved for the next experiment.
After 3 months, 7 model mice were killed after anesthesia. […] The remaining model mice were divided into 5 groups with 20 mice in each group. One of the groups was chosen as model control group (fed with normal water). The drinking water for other group were supplemented with PQQ (1 mg/kg/day), NAC (10 mg/kg/day), PQQ (1 mg/kg/day) +NAC (10 mg/kg/day) (denoted by P+N (H)); PQQ (0.2 mg/kg/day) +NAC (5 mg/kg/day) (denoted by P+N (L)).
After treatment with drugs for 4 weeks, the mice were killed by anesthesia. The uterus was surgically removed and the invasion of endometria into myometrium was analyzed by the pathological section.

[4] = test system: superoxide anion radical (O2.-) in endometrial stromal cells; test: Determination of superoxide anion (O2.-) content; type: cell-based, human; details: 18 h
Method: Superoxide anion (O2.^−) assay kit was purchased from Nanjing Jiancheng Bioengineering Insitute; Hydroxyl free radical assay kit was purchased from Shanghai Xinyu Biological Technology Co., Ltd., Hydrogen Peroxide Assay Kit was purchased from Beyotime Biotechnology Research Institute. The cells were cultured in 96-well cell culture plates for 24 h after the cells adhered to the plate. Three different concentrations PQQ (30 nm, 300 nm and 3 um) were added to the culture medium respectively. After additional 18 h incubation, the culture medium was discarded, and fresh culture medium supplemented with NBT (a final concentration of 1 mg/mL) was added to the cells. The cells were continually cultured for another 1 h at 37° C. The cells were fixed with 100% methanol, and naturally dried. 120 μL KOH (2 mol/L) and 140 μL DMSO were added to the cells. The optical density at wavelength 570 nm was measured.

[5] = 4 weeks in drinking water, PQQ (disodium salt) 1 mg/kg/day, NAC 10 mg/kg/day, P+N (H) 1+10, P+N (L) 0.2+5 mg/kg/day

## O=C(O)c1cc(C(=O)O)c2c(n1)C(=O)C(=O)c1cc(C(=O)O)[nH]c1-2 [PQQ, pyrroloquinoline quinone]
[1]
  apoptosis or necrosis compared to the control: No endometrial stromal cells apoptosis or necrosis
[2]; 300 nM PQQ, statistically meaningful
  inhibitory effect on cell invasion compared to the control group: definite inhibitory effect
[2]; 3 μM PQQ
  reduction of invasion ability of endometrial stromal cells: 35%
[2]; PQQ
  inhibitory effect on cell invasion compared to the control group: not obvious
[3]; [5]
  infiltration of endometrial glands, positive animals/total animals: 9/20*#
  infiltration of endometrial stroma, positive animals/total animals: 10/20*#
[3]; after 4 weeks treatment, PQQ as disodium salt
  number of animals with infiltration of endometrial stroma and glands compared with model control group: evidently lower than that in the model control group
[4]; PQQ 300 nM
  relative content of superoxide anion radical (O2.-): significantly declined
[4]; PQQ 3 uM
  relative content of superoxide anion radical (O2.-): significantly declined

Reference: patent publication US10959998B2, “Pharmaceutical use and pharmaceutical composition of pyrroloquinoline quinine, its derivatives and/or its salts” (priority 2015, dated 2021)
